One series has as its system ATP Citrate Lyase (ACL). Put plainly: Western blot, ATP Citrate Lyase levels. Format: cell-based, human. The following applies: for ATP Citrate Lysase Normalized Intensity as % of control: glucose 5g, 48 h. The procedure:
The whole cell pellets were resuspended one at a time in 1 mL of C7 buffer and transferred to labeled 15 mL tubes. The samples were then sonicated in the cold room on ice using 6 sonic pulses with the setting at #14. The samples were spun for a short time to 2500 g after sonication and the samples transferred to 2 ml tubes. The pH was verified of each sample (pH should be 9.0) using the foam remaining in the […] sample tubes.
After transfer each of the blots was placed in between 2 Whatman Filter papers and dried for 15-20 minutes. After drying the blots were labeled with the date, the type of samples and either blot 1 or blot 2 using a HB pencil. The molecular weight markers were outlined with the pencil and with single lines for the blue and a doublet for the colored markers. The blots were activated with methanol for 5 seconds, washed with water for 5 minutes, and TBST for 15 minutes. The blots were blocked for 1 hour with 5% blocking reagent in TBS-T at room temperature and then washed 3 times with TBS-T (1X−15′; 2X5′ each). Blot 1 was probed with the primary antibody for IDH1 (Cell Signaling #3997) in TBST with 5% BSA (at 1:1000 dilutions) and blot 2 with the rabbit polyclonal antibody for ATP Citrate Lyase in 5% BSA (Cell Signaling #4332) at 1:1000 dilution by incubation overnight at 4 deg C. with shaking. After the overnight incubation with primary antibodies, the blots were washed 3 times with TBS-T (1X−15′; 2X5′ each) and probed with the secondary antibody (antirabbit; 1:10,000 dilution) for 1 h on the orbital tilting shaker at room temperature. After 1 h of incubation with secondary antibodies, the blots were washed 3 times with TBS-T (1X−15′; 2X5′ each) and then incubated with ECF reagent for 5 mins and then each blot scanned with 5100 Fuji Laser scanner at 25 uM resolution, 16 bit, green laser, at 400V and at 500 V.
The samples were processed and run on a 4-12% Bis-Tris Novex NuPAGE gel as described above. The gels were run, transferred and stained essentially as described above.
The Isocitrate dehydrogenase blot was stripped by incubating for 30 minutes with methanol, followed by two 10 minute washes with TBS-T, then 30 minutes of incubation with stripping buffer at 50 deg C., and followed by two washes with 100 ml or more of TBS-T for 30′ each. The blot was scanned in laser scanner to check for complete stripping. The blot was activated with methanol for 5 seconds, washed with water for 5 minutes, and TBST for 15 minutes. The blot was blocked for 1 hour with 5% blocking reagent in TBS-T at room temperature and then washed 3 times with TBS-T (1X−15′; 2X5′ each). This was then probed with the rabbit polyclonal antibody for ATP Citrate Lyase in 5% BSA (Cell Signaling #4332) at 1:1000 dilution overnight at 4 deg C. with shaking. After the overnight incubation with primary antibody for ATP Citrate Lyase, the membrane was washed 3 times with TBS-T (1X−15′; 2X5′ each) and probed with the secondary antibody (antirabbit; 1:10,000 dilution) for 1 h on the orbital tilting shaker at room temperature. After 1 h of incubation with secondary antibodies, the blot was washed 3 times with TBS-T (1X−15′; 2X5′ each) and then incubated with ECF reagent for 5 minutes and then each blot scanned with 5100 Fuji Laser scanner at 25 uM resolution, 16 bit, green laser, at 400V and at 500 V.
In this experiment (western blot experiment 3), and in all of the experiments described below in this Example (i.e., western blot experiments 4 through 9), the cells were additionally treated with either 5 mM glucose (“5G”) or 22 mM glucose (“22G”). The samples derived from the cells were processed and run on a 4-12% Bis-Tris Novex NuPAGE gel as described above. The gels were run, transferred and stained essentially as described above.
The levels of IDH1, ATP citrate lyase and actin levels were determined by probing the blots with primary antibodies for IDH1, ATP citrate lyase and actin, essentially as described above.
For orientation: In western blotting, separated proteins are transferred to a membrane and probed.

Series [1] concerns Succinate Dehydrogenase (SDH) Subunit B. Put plainly: Western blot, Succinate Dehydrogenase B in mitochondrial preparations. The following applies: mitochondrial preparations of cancer cells. Format: cell-based. The procedure:
The above blots were stripped by incubating for 30 minutes with methanol, followed by two 10 minute washes with TBS-T, then 30 minutes of incubation with Stripping buffer at 50 deg C., and followed by two washes with 100 ml or more of TBS-T for 30′ each. The blots were scanned in laser scanner to check for complete stripping. The blots were activated with methanol for 5 seconds, washed with water for 5 minutes, and TBST for 15 minutes. The blots were blocked for 1 hour with 5% blocking reagent in TBS-T at room temperature and then washed 3 times with TBS-T (1X−15′; 2X5′ each) and probed with the primary antibody for PKM2, SDHB or SDHC in 5% BSA in TBS-T by incubation overnight at 4 deg C. with gentle shaking. The primary antibody for SDHC (ABNOVA H00006391-M12; antimouse) was at 1:500 dilution. The primary antibody for SDHB was from Abcam ab4714-200; antimouse; at 1:1000 dilution. The primary antibody for Pyruvate Kinase M2 (PKM2) was from Novus Biologicals H00005315-D0IP; antirabbit; at 1:500 dilution. After incubation with primary antibodies, the membranes were washed 3 times with TBS-T (1X−15′; 2X5′ each) and probed with the secondary antibody (SDHB & C antimouse; and PKM2 antirabbit; 1:10,000 dilution) for 1 h on the orbital tilting shaker at room temperature. […]

In a further series the test system is SK-MEL-28 mitochondria. The note with it: human, 48 h, 100 µM.
Series [2] deals with HepG2 (liver cancer) cells. In words: Real-time PCR Angiogenesis Array. Format: cell-based. The note with it: 100 μM Q10, genes: ANGPTL3, ANGPTL4, CXCL1, CXCL3, CXCL5, ENG, ID3, MMP2, TIMP3. The procedure:
The treatment was initiated on 1×10^5 cells per well, following the procedure utilized in the PaCa2 cells (above Examples 9-11). However, the total amount of RNA that was extracted from these samples was lower than expected. Reverse transcription is normally done using 1 μg of total RNA (determined by measurement at 260 nm). The maximum volume that can be used per reverse transcription is 8 μl.

Experimental for SK-MEL-28 mitochondria: Cells were centrifuged, pelleted, flash frozen and stored at −80° C. until the mitochondria were isolated. Cell pellets were thawed, resuspended and ruptured in Dounce homogenizer. The homogenate was centrifuged and mitochondria were isolated using reagents and the protocol recommended by the Mitochondria Isolation kit for Cultured cells (MitoSciences, Eugene Oreg., Cat #MS852). The mitochondrial fraction was aliquoted and stored at −80° C.
Analysis was by LC-MS/MS on a Waters Quattro II triple quadrupole mass spectrometer with a Prism RP 1×100 mm, 5 μm particle size column (Keystone Scientific). Isocratic elution with 4 mM ammonium formate in 20% isopropyl alcohol 80% methanol at a flow rate of 50 μl/min. Ten μl of each sample was injected.

For `COC1=C(OC)C(=O)C(C/C=C(\C)CC/C=C(\C)CC/C=C(\C)CC/C=C(\C)CC/C=C(\C)CC/C=C(\C)CC/C=C(\C)CC/C=C(\C)CC/C=C(\C)CCC=C(C)C)=C(C)C1=O` [Q10, Coenzyme Q10], the ATP Citrate Lysase Normalized Intensity as % of control in the series with ATP Citrate Lyase (ACL) (HepG2, 50 uM) was 85 % of control; with ATP Citrate Lyase (ACL) (HepG2, 100 uM), 79 % of control; with ATP Citrate Lyase (ACL) (PACA2, 50 uM), 68 % of control; in the series on ATP Citrate Lyase (ACL) (PACA2, 100 uM), 42 % of control. In addition, the “expression of ACL” value in the series on ATP Citrate Lyase (ACL) (cancer cells) is on record as “dose-dependent decrease in the expression of ACL enzymes”; in the series with ATP Citrate Lyase (ACL) (normal cells), “trend towards increased expression of ACL”. Also, in series [1], the SDH protein levels result is reported as “increase SDH protein levels”. In the series with SK-MEL-28 mitochondria, this compound displayed a Q10H2 of 0.28 ng/Sample. The “increase in the levels of Q10H2” value in the series on SK-MEL-28 mitochondria is listed as 3 fold. In series [2], the “genes regulated in the Angiogenesis Arrays” value is given as “List of genes regulated in the Angiogenesis Arrays”.

These data come from patent US10519504B2, “Methods for treatment of oncological disorders using epimetabolic shifters, multidimensional intracellular molecules, or environmental influencers” (Berg LLC, priority 2009, dated 2019).
